Test results reported in paper PMC5578959, “Selective LRRK2 kinase inhibition reduces phosphorylation of endogenous Rab10 and Rab12 in human peripheral mononuclear blood cells” (Scientific Reports, 2017).

Key:
Test in all cases: KiNativ profiling in human PBMCs
Type in all cases: binding
MST3 = system: T1, MST3; settings: Lys2
T1 construct: purchased ActivX Technologies (KiNativ)
Summary of the method: (§1)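 KiNativ readout; intact PBMCs dosed with compound at two concentrations (1 µM, 0.1 µM) before profiling.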

MAP2K3 = system: T2, MAP2K3
T2 construct: purchased ActivX Technologies (KiNativ)
Summary of the method: as §1

NEK8 = system: T3, NEK8; settings: Lys2
T3 construct: purchased ActivX Technologies (KiNativ)
Summary of the method: as §1

MAP2K7 = system: T4, MAP2K7; settings: Lys2
T4 construct: purchased ActivX Technologies (KiNativ)
Summary of the method: as §1

PKCa,PKCb = settings: Lys2
Summary of the method: as §1

JNK1,JNK2,JNK3 = settings: Lys2
Summary of the method: as §1

NuaK2 = system: T5, NuaK2; settings: Lys1
T5 construct: purchased ActivX Technologies (KiNativ)
Summary of the method: as §1

RSK2 domain2 = system: T6, RSK2 domain2; settings: Lys2
T6 construct: RSK2 domain2; purchased ActivX Technologies (KiNativ)
Summary of the method: as §1

RIPK3 = system: T7, RIPK3; settings: Lys2
T7 construct: purchased ActivX Technologies (KiNativ)
Summary of the method: as §1

MAP2K4 = system: T8, MAP2K4; settings: 1µM; Lys2
T8 construct: purchased ActivX Technologies (KiNativ)
Summary of the method: as §1

CDC2 = system: T9, CDC2; settings: Lys2
T9 construct: purchased ActivX Technologies (KiNativ)
Summary of the method: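 Cellular kinase profiling (KiNativ) was run on peripheral blood mononuclear cells incubated live with compound, tested at 1 µM and 0.1 µM.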

ACK = system: T10, ACK; settings: Lys1
T10 construct: purchased ActivX Technologies (KiNativ)
Summary of the method: as §1

CaMK2g = system: T11, CaMK2g; settings: Lys1
T11 construct: purchased ActivX Technologies (KiNativ)
Summary of the method: as §1

STLK5 = system: T12, STLK5
T12 construct: purchased ActivX Technologies (KiNativ)
Summary of the method: as §1

AKT2,AKT3 = settings: ATP Loop
Summary of the method: as §1

MST4,YSK1 = settings: Lys2
Summary of the method: as §1

MAP2K5 = system: T13, MAP2K5; settings: Lys2
T13 construct: purchased ActivX Technologies (KiNativ)
Summary of the method: as §1

IKKe,TBK1 = settings: Lys2
Summary of the method: as §1

MST1 = system: T14, MST1; settings: Lys1
T14 construct: purchased ActivX Technologies (KiNativ)
Summary of the method: as §1

PKD2 = system: T15, PKD2; settings: Lys1
T15 construct: purchased ActivX Technologies (KiNativ)
Summary of the method: as §1

LYN = system: T16, LYN
T16 construct: purchased ActivX Technologies (KiNativ)
Summary of the method: as §1

LOK = system: T17, LOK
T17 construct: purchased ActivX Technologies (KiNativ)
Summary of the method: as §1

HPK1 = system: T18, HPK1
T18 construct: purchased ActivX Technologies (KiNativ)
Summary of the method: as §1

JAK1 domain2 = system: T19, JAK1 domain2
T19 construct: JAK1 domain2; purchased ActivX Technologies (KiNativ)
Summary of the method: as §1

BTK = system: T20, BTK; settings: Activation Loop
T20 construct: purchased ActivX Technologies (KiNativ)
Summary of the method: as §1

p70S6K,p70S6Kb = settings: ATP Loop
Summary of the method: as §1

MAP2K1,MAP2K2 = settings: Lys2
Summary of the method: as §1

PITSLRE = system: T21, PITSLRE; settings: Lys2
T21 construct: purchased ActivX Technologies (KiNativ)
Summary of the method: as §1

IRE1 = system: T22, IRE1; settings: Lys2
T22 construct: purchased ActivX Technologies (KiNativ)
Summary of the method: as §1

LKB1 = system: T23, LKB1; settings: Lys2
T23 construct: purchased ActivX Technologies (KiNativ)
Summary of the method: as §1

CHK2 = system: T24, CHK2
T24 construct: purchased ActivX Technologies (KiNativ)
Summary of the method: as §1

CDK2 = system: T25, CDK2
T25 construct: purchased ActivX Technologies (KiNativ)
Summary of the method: as §1

PAN3 = system: T26, PAN3; settings: Protein Kinase Domain
T26 construct: purchased ActivX Technologies (KiNativ)
Summary of the method: as §1

ZAK = system: T27, ZAK; settings: Lys1
T27 construct: purchased ActivX Technologies (KiNativ)
Summary of the method: as §1

CaMKK2 = system: T28, CaMKK2; settings: Lys2
T28 construct: purchased ActivX Technologies (KiNativ)
Summary of the method: as §1

TAO2 = system: T29, TAO2; settings: Lys2
T29 construct: purchased ActivX Technologies (KiNativ)
Summary of the method: as §1

Compound: Cc1cccc(-c2cc(Nc3ccn(C)n3)nc3[nH]cc(C#N)c23)c1 [Lu AF58786]
- Inhibition (MST3; 0.1µM): 12.8%
- Inhibition (MST3; 1µM): 1.2%
- Inhibition (MAP2K3; 0.1µM, Lys1): -31.6%
- Inhibition (MAP2K3; 0.1µM, Lys2): -1.9%
- Inhibition (MAP2K3; 1µM, Lys1): -37.3%
- Inhibition (MAP2K3; 1µM, Lys2): 0.27%
- Inhibition (NEK8; 0.1µM): -2.3%
- Inhibition (NEK8; 1µM): -10.4%
- Inhibition (MAP2K7; 0.1µM): 18.1%
- Inhibition (MAP2K7; 1µM): -7.3%
- Inhibition (PKCa,PKCb; 0.1µM): -5.7%
- Inhibition (PKCa,PKCb; 1µM): -0.9%
- Inhibition (JNK1,JNK2,JNK3; 0.1µM): 30.2%
- Inhibition (JNK1,JNK2,JNK3; 1µM): 71.2%
- Inhibition (NuaK2; 0.1µM): 20.0%
- Inhibition (NuaK2; 1µM): 38.2%
- Inhibition (RSK2 domain2; 0.1µM): -3.4%
- Inhibition (RSK2 domain2; 1µM): 2.8%
- Inhibition (RIPK3; 0.1µM): 2.4%
- Inhibition (RIPK3; 1µM): -10.9%
- Inhibition (MAP2K4): -0.124%
- Inhibition (CDC2; 0.1 µM, DLKPQNLLIDDK): -19.4%
- Inhibition (CDC2; 0.1 µM, DLKPQNLLIDDKGTIK): 5.9%
- Inhibition (CDC2; 1 µM, DLKPQNLLIDDK): -27.3%
- Inhibition (CDC2; 1 µM, DLKPQNLLIDDKGTIK): 6.8%
- Inhibition (ACK; 0.1µM): -14.9%
- Inhibition (ACK; 1µM): -10.3%
- Inhibition (CaMK2g; 0.1µM): 3.3%
- Inhibition (CaMK2g; 1µM): -7.2%
- Inhibition (STLK5; 0.1µM, Activation Loop): 3.4%
- Inhibition (STLK5; 0.1µM, Lys2): 16.0%
- Inhibition (STLK5; 1µM, Activation Loop): -4.3%
- Inhibition (STLK5; 1µM, Lys2): 19.2%
- Inhibition (AKT2,AKT3; 0.1µM): -0.7%
- Inhibition (AKT2,AKT3; 1µM): -7.3%
- Inhibition (MST4,YSK1; 0.1µM): 22.5%
- Inhibition (MST4,YSK1; 1µM): 4.6%
- Inhibition (MAP2K5; 0.1µM): -0.318%
- Inhibition (MAP2K5; 1µM): 17.4%
- Inhibition (IKKe,TBK1; 0.1µM): -16.4%
- Inhibition (IKKe,TBK1; 1µM): -9.8%
- Inhibition (MST1; 0.1µM): 26.2%
- Inhibition (MST1; 1µM): 19.0%
- Inhibition (PKD2; 0.1µM): 14.5%
- Inhibition (PKD2; 1µM): 15.3%
- Inhibition (LYN; 0.1µM, Activation Loop): -18.7%
- Inhibition (LYN; 0.1µM, Lys1): -21.4%
- Inhibition (LYN; 1µM, Activation Loop): 1.0%
- Inhibition (LYN; 1µM, Lys1): -4.5%
- Inhibition (LOK; 0.1µM, Lys1): 13.2%
- Inhibition (LOK; 0.1µM, Lys2): 1.8%
- Inhibition (LOK; 1µM, Lys1): 9.9%
- Inhibition (HPK1; 0.1µM, Lys2): 13.0%
- Inhibition (HPK1; 1µM, Lys1): 8.1%
- Inhibition (HPK1; 1µM, Lys2): 21.1%
- Inhibition (JAK1 domain2; 0.1µM, Activation Loop): 0.9%
- Inhibition (JAK1 domain2; 0.1µM, Lys1): -25.0%
- Inhibition (JAK1 domain2; 1µM, Activation Loop): -39.0%
- Inhibition (JAK1 domain2; 1µM, Lys1): -35.1%
- Inhibition (BTK; 0.1µM): 25.8%
- Inhibition (BTK; 1µM): 9.5%
- Inhibition (p70S6K,p70S6Kb; 0.1µM): 3.7%
- Inhibition (p70S6K,p70S6Kb; 1µM): -2.7%
- Inhibition (MAP2K1,MAP2K2; 0.1 µM, DVKPSNILVNSR): 4.0%
- Inhibition (MAP2K1,MAP2K2; 1 µM, DVKPSNILVNSR): 1.8%
- Inhibition (MAP2K1,MAP2K2; 1 µM, IMHRDVKPSNILVNSR): 14.1%
- Inhibition (PITSLRE; 0.1µM): 2.7%
- Inhibition (PITSLRE; 1µM): -9.8%
- Inhibition (IRE1; 0.1µM): -7.8%
- Inhibition (IRE1; 1µM): -11.6%
- Inhibition (LKB1; 0.1µM): 6.1%
- Inhibition (LKB1; 1µM): 3.9%
- Inhibition (CHK2; 0.1µM, Lys1): 15.1%
- Inhibition (CHK2; 0.1µM, Lys2): 2.3%
- Inhibition (CHK2; 1µM, Lys1): 2.8%
- Inhibition (CHK2; 1µM, Lys2): -16.2%
- Inhibition (CDK2; 0.1µM, Lys1): 5.0%
- Inhibition (CDK2; 0.1µM, Lys2): 7.1%
- Inhibition (CDK2; 1µM, Lys1): 9.2%
- Inhibition (CDK2; 1µM, Lys2): 5.2%
- Inhibition (PAN3; 0.1µM): -11.9%
- Inhibition (PAN3; 1µM): -9.9%
- Inhibition (ZAK; 0.1µM): 18.8%
- Inhibition (ZAK; 1µM): 11.6%
- Inhibition (CaMKK2; 0.1µM): 13.8%
- Inhibition (CaMKK2; 1µM): 1.3%
- Inhibition (TAO2; 0.1µM): 17.3%
- Inhibition (TAO2; 1µM): 18.3%
